Structures are written as SMILES.

One test deals with HBV (encapsidated HBV DNA, HepG2.2.15 cells). The experiment in a line: HBV replication inhibition assay, BDNA assay in HepG2.2.15 cells. In kind it is cell-based. The following applies: Activity in BDNA-assay. How it is done:
HBV replication inhibition by the disclosed compounds were determined in cells infected or transfected with HBV, or cells with stably integrated HBV, such as HepG2.2.15 cells (Sells et al. 1987). In this example, HepG2.2.15 cells were maintained in cell culture medium containing 10% fetal bovine serum (FBS), Geneticin, L-glutamine, penicillin and streptomycin. HepG2.2.15 cells were seeded in 96-well plates at a density of 40,000 cells/well and were treated with serially diluted compounds at a final DMSO concentration of 0.5% either alone or in combination by adding drugs in a checker box format. Cells were incubated with compounds for three days, after which medium was removed and fresh medium containing compounds was added to cells and incubated for another three days. At day 6, supernatant was removed and treated with DNase at 37° C. for 60 minutes, followed by enzyme inactivation at 75° C. for 15 minutes. Encapsidated HBV DNA was released from the virions and covalently linked HBV polymerase by incubating in lysis buffer (Affymetrix QS0010) containing 2.5 μg proteinase K at 50° C. for 40 minutes. HBV DNA was denatured by addition of 0.2 M NaOH and detected using a branched DNA (BDNA) QuantiGene assay kit according to manufacturer recommendation (Affymetrix). HBV DNA levels were also quantified using qPCR, based on amplification of encapsidated HBV DNA extraction with QuickExtraction Solution (Epicentre Biotechnologies) and amplification of HBV DNA using HBV specific PCR probes that can hybridize to HBV DNA and a fluorescently labeled probe for quantitation. In addition, cell viability of HepG2.2.15 cells incubated with test compounds alone or in combination was determined by using CellTitre-Glo reagent according to the manufacturer protocol (Promega). The mean background signal from wells containing only culture medium was subtracted from all other samples, and percent inhibition at each compound concentration was calculated by normalizing to signals from HepG2.2.15 cells treated with 0.5% DMSO using equation E1. % inhibition=(DMSOave−Xi)/DMSOave×100% E1: where DMSOave is the mean signal calculated from the wells that were treated with DMSO control (0% inhibition control) and Xi is the signal measured from the individual wells. EC50 values, effective concentrations that achieved 50% inhibitory effect, were determined by non-linear fitting using Graphpad Prism software (San Diego, Calif.) and equation E2: Y=Y min+(Y max −Y min)/(1+10(Log EC50−X)×HillSlope) E2: […]
where Y represents percent inhibition values and X represents the logarithm of compound concentrations.
Selected disclosed compounds were assayed in the HBV replication assay (BDNA assay), as described above and a representative group of these active compounds is shown in Table 6.
As for `CC1CN(C)C(=O)c2c3c(nn2C1)C[C@@H](C)N(C(=O)Nc1ccc(F)c(Cl)c1)C3` (single isomer, unassigned) [Compound 080_D2, (3R,8R*)—N-(3-chloro-4-fluorophenyl)-3,8,10-trimethyl-11-oxo-3,4,8,9,10,11-hexahydro-1H-pyrido[4′,3′:3,4]pyrazolo[1,5-a][1,4]diazepine-2 (7H)-carboxamide], the EC50 (in general, the concentration at which the effect is half-maximal) fell in the range of 1 to 100 nM.
For the compound `C[C@@H]1Cc2nn3c(c2CN1C(=O)Nc1ccc(F)c(C(F)(F)F)c1)C(=O)N(C)CC(CO)C3` (single isomer, unassigned) [Compound 081_D2, (3R,8R*)—N-(4-fluoro-3-(trifluoromethyl)phenyl)-8-(hydroxymethyl)-3,10-dimethyl-11-oxo-3,4,8,9,10,11-hexahydro-1H-pyrido[4′,3′:3,4]pyrazolo[1,5-a][1,4]diazepine-2 (7H)-carboxamide], the EC50 lay in the range of 1 to 100 nM.
Turning to `CN1CC(CNCC(F)F)Cn2nc3c(c2C1=O)CN(C(=O)Nc1ccc(F)c(Cl)c1F)CC3` (single isomer, unassigned) [Compound 128_E1, (R*)—N-(3-chloro-2,4-difluorophenyl)-8-(((2,2-difluoroethyl)amino)methyl)-10-methyl-11-oxo-1,3,4,7,8,9,10,11-octahydro-2H-pyrido[4′,3′:3,4]pyrazolo[1,5-a][1,4]diazepine-2-carboxamide], the EC50 was in the range of 100 to 500 nM.
Consider `CCC(O)C1CN(C)C(=O)c2c3c(nn2C1)CCN(C(=O)Nc1ccc(F)c(C#N)c1F)C3` (single isomer, unassigned) [Compound 098_E4, (R*)—N-(3-cyano-2,4-difluorophenyl)-8-((R*)-1-hydroxypropyl)-10-methyl-11-oxo-1,3,4,7,8,9,10,11-octahydro-2H-pyrido[4′,3′:3,4]pyrazolo[1,5-a][1,4]diazepine-2-carboxamide], for which the EC50 was 500 to 1000 nM.
Regarding `C[C@@H]1Cc2nn3c(c2CN1C(=O)Nc1cc(C(F)(F)F)c(F)cc1F)C(=O)N(C)CC(CO)C3` (single isomer, unassigned) [Compound 082_D1, (3R,8S*)—N-(2,4-difluoro-5-(trifluoromethyl)phenyl)-8-(hydroxmethyl)-3,10-dimethyl-11-oxo-1,3,4,7,8,9,10,11-octahydro-2H-pyrido[4′,3′:3,4]pyrazolo[1,5-a][1,4]diazepine-2-carboxamide], the EC50 lay within 1 to 100 nM.
`C[C@@H]1Cc2nn3c(c2CN1C(=O)Nc1cc(Br)c(F)cc1F)C(=O)N(C)CC(CO)C3` (single isomer, unassigned) [Compound 085_D2, (3R,8R*)—N-(5-bromo-2,4-difluorophenyl)-8-(hydroxymethyl)-3,10-dimethyl-11-oxo-1,3,4,7,8,9,10,11-octahydro-2H-pyrido[4′,3′:3,4]pyrazolo[1,5-a][1,4]diazepine-2-carboxamide]: the EC50 lay in the range of 1 to 100 nM.

Still in this test, the particulars now being: Hepatitis B virus, HepG2.2.15, Activity in BDNA-assay.
On to `CC(=O)NCC1CN(C)C(=O)c2c3c(nn2C1)CCN(C(=O)Nc1ccc(F)c(Cl)c1)C3` (stereo not drawn) [Compound 117, 8-(acetamidomethyl)-N-(3-chloro-4-fluorophenyl)-10-methyl-11-oxo-1,3,4,7,8,9,10,11-octahydro-2H-pyrido[4′,3′:3,4]pyrazolo[1,5-a][1,4]diazepine-2-carboxamide], for which the EC50 lay in the range of 1 to 100 nM.
Consider `C[C@@H]1Cc2nn3c(c2CN1C(=O)Nc1ccc(F)c(C#N)c1)C(=O)N(C)[C@H](CF)C3` [Compound 149, (3R,8S)-N-(3-cyano-4-fluorophenyl)-8-(fluoromethyl)-3,9-dimethyl-10-oxo-3,4,7,8,9,10-hexahydropyrido[4′,3′:3,4]pyrazolo[1,5-a]pyrazine-2(1H)-carboxamide], for which the EC50 is 1 to 100 nM.
Consider `C=CC(O)C1CN(C)C(=O)c2c3c(nn2C1)CC(C)N(C(=O)Nc1ccc(F)c(Br)c1)C3` [Compound 124_D1, (3R,8S*)—N-(3-bromo-4-fluorophenyl)-8-((R*)-1-hydroxyallyl)-3,10-dimethyl-11-oxo-1,3,4,7,8,9,10,11-octahydro-2H-pyrido[4′,3′:3,4]pyrazolo[1,5-a][1,4]diazepine-2-carboxamide], for which the EC50 lay in the range of 1 to 100 nM.
Same read-out and setting: the value for `CCC(O)C1CN(C)C(=O)c2c3c(nn2C1)CCN(C(=O)Nc1ccc(F)c(Br)c1F)C3` (single isomer, unassigned) [Compound 101_E1, (R*)—N-(3-bromo-2,4-difluorophenyl)-8-((S*)-1-hydroxypropyl)-10-methyl-11-oxo-1,3,4,7,8,9,10,11-octahydro-2H-pyrido[4′,3′:3,4]pyrazolo[1,5-a][1,4]diazepine-2-carboxamide] was 1 to 100 nM; that for `CNCC1CN(C)C(=O)c2c3c(nn2C1)CCN(C(=O)Nc1ccc(F)c(C(F)(F)F)c1)C3` (stereo not drawn) [Compound 094, N-[4-fluoro-3-(trifluoromethyl)phenyl]-10-methyl-8-(methylaminomethyl)-11-oxo-1,3,4,7,8,9-hexahydropyrido[2,3]pyrazolo[2,4-b][1,4]diazepine-2-carboxamide] was 100 to 500 nM.
For `CN1CCn2nc3c(c2C1=O)CN(C(=O)Nc1ccc(F)c(Cl)c1)CC3` [Compound 045, N-(3-chloro-4-fluorophenyl)-9-methyl-10-oxo-3,4,7,8,9,10-hexahydropyrido[4′,3′:3,4]pyrazolo [1,5-a]pyrazine-2 (1H)-carboxamide], the EC50 fell in the range of 1 to 100 nM.
Same read-out and setting: to `CN1CC(N(C)C)Cn2nc3c(c2C1=O)CN(C(=O)Nc1ccc(F)c(Cl)c1)CC3` (stereo not drawn) [Compound 020, N-(3-chloro-4-fluorophenyl)-8-(dimethylamino)-10-methyl-11-oxo-1,3,4,7,8,9,10,11-octahydro-2H-pyrido[4′,3′:3,4]pyrazolo[1,5-a][1,4]diazepine-2-carboxamide] belongs 1 to 100 nM; to `O=C(Nc1ccc(F)c(Cl)c1)N1CCc2nn3c(c2C1)C(=O)N(CC(F)F)CCC3` [Compound 038, N-(3-chloro-4-fluorophenyl)-10-(2,2-difluoroethyl)-11-oxo-1,3,4,7,8,9,10,11-octahydro-2H-pyrido[4′,3′:3,4]pyrazolo[1,5-a][1,4]diazepine-2-carboxamide], 1 to 100 nM; to `CN1CC(F)Cn2nc3c(c2C1=O)CN(C(=O)Nc1ccc(F)c(C(F)(F)F)c1)CC3` (stereo not drawn) [Compound 011, 8-fluoro-N-(4-fluoro-3-(trifluoromethyl)phenyl)-10-methyl-11-oxo-1,3,4,7,8,9,10,11-octahydro-2H-pyrido[4′,3′:3,4]pyrazolo[1,5-a][1,4]diazepine-2-carboxamide], 1 to 100 nM.
For the compound `C[C@@H]1Cc2nn3c(c2CN1C(=O)Nc1ccc(F)c(Cl)c1)C(=O)N(CCO)CCC3` [Compound 049, (3R)— N-(3-chloro-4-fluorophenyl)-10-(2-hydroxyethyl)-3-methyl-11-oxo-1,3,4,7,8,9,10,11-octahydro-2H-pyrido[4′,3′:3,4]pyrazolo[1,5-a][1,4]diazepine-2-carboxamide], the EC50 is 1 to 100 nM.
On to `CN1CC(N2CCC(F)(F)C2)Cn2nc3c(c2C1=O)CN(C(=O)Nc1ccc(F)c(Cl)c1)CC3` (stereo not drawn) [Compound 054, N-(3-chloro-4-fluorophenyl)-8-(3,3-difluoropyrrolidin-1-yl)-10-methyl-11-oxo-1,3,4,7,8,9,10,11-octahydro-2H-pyrido[4′,3′:3,4]pyrazolo[1,5-a][1,4]diazepine-2-carboxamide], for which the EC50 was 100 to 500 nM.
On the same count and under the same terms, the value for `CN1CC(C(O)C2CC2)Cn2nc3c(c2C1=O)CN(C(=O)Nc1ccc(F)c(Cl)c1)CC3` (stereo not drawn) [Compound 036] was 1 to 100 nM.
For the compound `CN1CC2(CC(O)C2)Cn2nc3c(c2C1=O)CN(C(=O)Nc1ccc(F)c(Cl)c1)CC3` (stereo not drawn) [Compound 132, N-(3-chloro-4-fluorophenyl)-3-hydroxy-10′-methyl-11′-oxo-1′,3′,4′,9′,10′,11′-hexahydro-2′H,7′H-spiro[cyclobutane-1,8′-pyrido[4′,3′:3,4]pyrazolo [1,5-a][1,4]diazepine]-2′-carboxamide], the EC50 lay within 1 to 100 nM.
Consider `CN1CC(CN)Cn2nc3c(c2C1=O)CN(C(=O)Nc1ccc(F)c(Cl)c1)CC3` (stereo not drawn) [Compound 070, 8-(aminomethyl)-N-(3-chloro-4-fluorophenyl)-10-methyl-11-oxo-1,3,4,7,8,9,10,11-octahydro-2H-pyrido[4′,3′:3,4]pyrazolo[1,5-a][1,4]diazepine-2-carboxamide], for which the EC50 was 1 to 100 nM.
Still for that read-out and setting: to `C[C@@H]1Cc2nn3c(c2CN1C(=O)Nc1ccnc(Br)c1F)C(=O)N(CC(F)F)CCC3` [Compound 075] belongs 1 to 100 nM.

For the origin of these results see patent US10975077B2 (Novira Therapeutics, Inc., priority 2016, dated 2021).
